Assays:
[1] = Excitation and fluorescence emission wavelength measurement; type: physicochemical; parameters: Stokes shift (λem − λex): unit not given here; conditions: aqueous solution: 10 mg/mL solution in DMSO diluted 500-fold with purified water
Experimental: It should be noted that the excitation wavelength and the fluorescence emission wavelength of the staining compound were determined by measuring an aqueous solution, which had been obtained by diluting 500-fold a 10 mg/mL solution of the staining compound in DMSO with purified water, with a fluorescence spectrophotometer FL 4500 manufactured by Hitachi High-Technologies Corporation.

[2] = Storage stability of staining compound solution in DMSO; type: physicochemical; conditions: 10 ng/mL in DMSO, closed glass container, normal temperature, 1 month; rate of change of absorbance and fluorescence intensity
Experimental: A 10 ng/mL solution of each of the staining compounds of Labelled Examples 1 to 78 and Labelled Comparative Examples 1 and 2 in DMSO was prepared, charged into a well-closed container made of glass, and left to stand still at normal temperature for 1 month. The absorbance and the fluorescence intensity at the time of the start of a storage stability test were measured at a given wavelength, and their rates of change were examined (+++: rates of change of the absorbance and the fluorescence intensity are less than 5%, and thus, the storage stability is highly excellent; ++: rates of change of the absorbance and fluorescence intensity are 5 to 15%, and thus, the storage stability is excellent; and −: rates of change of the absorbance and fluorescence intensity are more than 15%, and thus, the storage stability is poor).

Zebrafish juveniles = experiment: In vivo labelling of Zebrafish juveniles with probe for biological specimen; parameters: key to Staining property: +++: stained; −: no stained; key to Fluorescence sensitivity: +++: strongly observed; ++: moderately observed; +: weakly observed; −: no stained; conditions: 1 hour; for Site(s) to be labelled: 10 ng/mL in water, stereoscopic microscope; for Fluorescence sensitivity / Staining property: 10 ng/mL; for Fluorescence sensitivity: fluorescence intensity visually evaluated; for Staining property: visually evaluated
Experimental: Five juveniles of Zebrafish were put into one well of a well plate together with rearing water. After rearing water had been discharged, 1 mL of distilled water was added to the well, and a solution of a staining compound (1) in DMSO was further added thereto so as to achieve a concentration of 10 ng/mL, followed by gentle stirring (pipetting). Further, Egg Water was prepared by dissolving artificial seawater SEALIFE (manufactured by Marinetech Co., Ltd.) in distilled water at a concentration of 60 mg/L. After the whole had been left to stand for 1 hour, distilled water in the well was discharged and replaced by 1 mL of fresh Egg Water. In addition, such an operation that Egg Water was discharged and replaced by 1 mL of fresh Egg Water was repeated twice. One of the juveniles was taken out from the well onto a dish, supplemented with 100 μL of a 3% methylcellulose aqueous solution to fix the movement of the juvenile, and photographed with a stereoscopic microscope (MZ10F: manufactured by Leica Microsystems K.K.).
The same operation as that in Example 1 was performed except that the staining compound (1) used in Example 1 was changed to any one of the staining compounds described in Table 1.
The same operation as that in Example 1 was performed except that the staining compound (1) used in Example 1 was changed to any one of indocyanine green (ICG) and fluorescein.
The staining property of each of the staining compounds of Labelled Examples 1 to 78 and Labelled Comparative Examples 1 and 2 was visually evaluated (+++: stained and −: no stained).
The fluorescence intensity of each of the staining compounds of Labelled Examples 1 to 78 and Labelled Comparative Examples 1 and 2 was visually evaluated (+++: strongly observed, ++: moderately observed, +: weakly observed, and −: no stained).

| Excitation wavelength λex [1] | Fluorescence emission wavelength λem [1] | Stokes shift (λem − λex) [1] | SMILES | Storage stability [2] | Site(s) to be labelled (Zebrafish juveniles) | Fluorescence sensitivity (Zebrafish juveniles) | Staining property (Zebrafish juveniles) |
| --- | --- | --- | --- | --- | --- | --- | --- |
| 586 nm | 661 nm | 75 | O=C(O)Cn1c(=O)/c(=C\c2ccc3c(c2)C2CCCC2N3c2ccccc2)s/c1=C1/SC(=S)N(Cc2ccccc2)C1=O (stereo not drawn) [Dye 66] | ++ (rates of change of the absorbance and fluorescence intensity are 5 to 15%, and thus, the storage stability is excellent) | blood vessel, nose, and gastrointestinal tract | ++ | +++ |
| 598 nm | 726 nm | 128 | O=C(O)CC[n+]1c(/C=C/c2ccc3c(c2)C2CCCC2N3c2ccc(C=C(c3ccccc3)c3ccccc3)cc2)sc2ccccc21 (stereo not drawn) [Dye 73] | +++ (rates of change of the absorbance and the fluorescence intensity are less than 5%, and thus, the storage stability is highly excellent) | nose | +++ | +++ |
| 535 nm | 655 nm | 120 | O=C(O)CN1C(=O)/C(=C\c2ccc3c(c2)C2CCCC2N3c2ccc(C=C(c3ccccc3)c3ccccc3)cc2)SC1=S (stereo not drawn) [Dye 88] | +++ (rates of change of the absorbance and the fluorescence intensity are less than 5%, and thus, the storage stability is highly excellent) | nose | +++ | +++ |
| 479 nm | 600 nm | 121 | N#C/C(=C\c1ccc2c(c1)C1CCCC1N2c1ccc(C=C(c2ccccc2)c2ccccc2)cc1)C(=O)O (stereo not drawn) [Dye 108] | +++ (rates of change of the absorbance and the fluorescence intensity are less than 5%, and thus, the storage stability is highly excellent) |  | +++ | +++ |
| 623 nm | 671 nm | 48 | CCN1C(=O)/C(=c2/s/c(=C/c3ccc4c(c3)C3CCCC3N4CC)c(=O)n2CC(=O)O)SC1=S (stereo not drawn) [Dye 110] | +++ (rates of change of the absorbance and the fluorescence intensity are less than 5%, and thus, the storage stability is highly excellent) | blood vessel | +++ | +++ |
| 520 nm | 640 nm | 120 | CSc1cccc(N2c3ccc(/C=C4/SC(=S)N(CC(=O)O)C4=O)cc3C3CCCC32)c1 (stereo not drawn) [Dye 115] | +++ (rates of change of the absorbance and the fluorescence intensity are less than 5%, and thus, the storage stability is highly excellent) | blood vessel, gallbladder, and gastrointestinal | +++ | +++ |

The next lines start with the compound.

| SMILES | Excitation wavelength λex [1] | Fluorescence emission wavelength λem [1] | Stokes shift (λem − λex) [1] | Storage stability [2] | Site(s) to be labelled (Zebrafish juveniles) | Fluorescence sensitivity (Zebrafish juveniles) | Staining property (Zebrafish juveniles) |
| --- | --- | --- | --- | --- | --- | --- | --- |
| CCCCN1C(=O)/C(=c2\s/c(=C/c3ccc4c(c3)C3CCCC3N4c3ccc(OC)cc3)c(=O)n2CC(=O)OCC)SC1=S (stereo not drawn) [Dye 62] | 450 nm | 527 nm | 77 | +++ (rates of change of the absorbance and the fluorescence intensity are less than 5%, and thus, the storage stability is highly excellent) | gastrointestinal tract | +++ | +++ |
| COc1ccc(N2c3ccc(/C=c4/s/c(=C5/SC(=S)N(Cc6ccccc6)C5=O)n(CC(=O)O)c4=O)cc3C3CCCC32)cc1 (stereo not drawn) [Dye 67] | 568 nm | 712 nm | 144 | +++ (rates of change of the absorbance and the fluorescence intensity are less than 5%, and thus, the storage stability is highly excellent) | blood vessel | +++ | +++ |
| CCN1C(=O)/C(=c2\s/c(=C/c3ccc4c(c3)C3CCCC3N4c3ccc(OC)cc3)c(=O)n2CC)SC1=S (stereo not drawn) [Dye 68] | 602 nm | 667 nm | 65 | +++ (rates of change of the absorbance and the fluorescence intensity are less than 5%, and thus, the storage stability is highly excellent) | gastrointestinal tract | +++ | +++ |
| C=CCN1C(=O)/C(=c2\s/c(=C/c3ccc4c(c3)C3CCCC3N4c3ccc(C=C(c4ccccc4)c4ccccc4)cc3)c(=O)n2CC(=O)OCC)SC1=S (stereo not drawn) [Dye 69] | 600 nm | 656 nm | 56 | +++ (rates of change of the absorbance and the fluorescence intensity are less than 5%, and thus, the storage stability is highly excellent) | gastrointestinal tract | +++ | +++ |
| COc1ccc(N2c3ccc(/C=C/c4sc5ccccc5[n+]4CCC(=O)O)cc3C3CCCC32)cc1 (stereo not drawn) [Dye 72] | 583 nm | 668 nm | 85 | +++ (rates of change of the absorbance and the fluorescence intensity are less than 5%, and thus, the storage stability is highly excellent) | gallbladder and gastrointestinal tract | +++ | +++ |
| COc1ccc(N2c3ccc(/C=C/C4=[N+](CCC(=O)O)c5ccccc5C4(C)C)cc3C3CCCC32)cc1 (stereo not drawn) [Dye 76] | 592 nm | 671 nm | 79 | +++ (rates of change of the absorbance and the fluorescence intensity are less than 5%, and thus, the storage stability is highly excellent) | gastrointestinal tract and lower abdomen | +++ | +++ |
| CCN1C(=O)/C(=c2/s/c(=C/c3ccc4c(c3)C3CCCC3N4c3ccc(C=C(c4ccccc4)c4ccccc4)cc3)c(=O)n2CC(=O)O)SC1=S (stereo not drawn) [Dye 102] | 551 nm | 673 nm | 122 | +++ (rates of change of the absorbance and the fluorescence intensity are less than 5%, and thus, the storage stability is highly excellent) | gastrointestinal tract | +++ | +++ |
| CCN1C(=O)/C(=c2\s/c(=C/c3ccc4c(c3)C3CCCC3N4c3ccc(C=C(c4ccccc4)c4ccccc4)cc3)c(=O)n2CC(=O)O)SC1=S (stereo not drawn) [Dye 103] | 567 nm | 702 nm | 135 | +++ (rates of change of the absorbance and the fluorescence intensity are less than 5%, and thus, the storage stability is highly excellent) | gastrointestinal tract | +++ | +++ |
| N#C/C(=C\c1ccc2c(c1)C1CCCC1N2c1ccccc1)C(=O)O (stereo not drawn) [Dye 105] | 451 nm | 530 nm | 79 | +++ (rates of change of the absorbance and the fluorescence intensity are less than 5%, and thus, the storage stability is highly excellent) | liver and gastrointestinal tract | ++ | +++ |
| CCN1c2ccc(/C=C3/SC(=S)N(CC(=O)O)C3=O)cc2C2CCCC21 (stereo not drawn) [Dye 109] | 440 nm | 600 nm | 160 | +++ (rates of change of the absorbance and the fluorescence intensity are less than 5%, and thus, the storage stability is highly excellent) | liver and gastrointestinal tract | +++ | +++ |

Source: patent US9801960B2, “Probe for a biological specimen and labelling method and screening method using the probe” (CANON KABUSHIKI KAISHA, priority 2008, dated 2017)
